According to patent US9993494B2, “Compositions and methods for treating fibrotic disease” (eFFECTOR Therapeutics, Inc., priority 2014, dated 2018):

Test system: normal human lung fibroblasts
Experiment: Ribosomal profiling: translational efficiency in TGFβ-treated fibroblasts
Assay type: cell-based
Protocol: Ribosomal profiling allows for measurement of changes in transcription and translation on a genome-wide basis accompanying TGFβ-dependent transformation of fibroblasts to myofibroblasts. Ribosomal profiles of the TGFβ-treated fibroblasts from Example 1 (about 6×10^6 cells/10 cm plate) were prepared and analyzed for changes in translational efficiencies with respect to potential disease-associated cellular changes accompanying this TGFβ-induced transformation.
Briefly, cells were washed with cold PBS supplemented with cycloheximide and lysed with 1× mammalian cell lysis buffer for 10 minutes on ice. Lysates were clarified by centrifugation for 10 minutes at 14,000 rpm and supernatants were collected. Cell lysates were processed to generate ribosomal protected fragments and total mRNA according to the instructions included with the ARTseq Ribosome Profiling Kit (Illumina, San Diego, Calif.). Sequencing of total RNA (RNA) and of ribosome-protected fragments of RNA (RPF) was carried out using RNA-Seq methodology according to the manufacturer's instructions (Illumina). To analyze the ribosomal profiles, RNA-Seq reads were processed with tools from the FASTX-Toolkit (fastq_quality_trimmer, fastx_clipper and fastx_trimmer). Unprocessed and processed reads were evaluated for a variety of quality measures using FastQC, and processed reads were mapped to the human genome using TopHat (see, e.g., Trapnell et al., Bioinformatics 25:1105, 2009). Gene-by-gene assessment of the number of fragments strictly and uniquely mapping to the coding region of each gene was conducted using HTSeq-count, a component of the HTSeq package. […] Genes with low counts in either RPF or RNA were excluded from differential analyses. Pathway and network analyses of differential data were conducted using Ingenuity Pathway Analysis (IPA).

## TGFβ
ENSG00000142937, 5 replicates
  Log2 TE RPS8: 1.611
ENSG00000143632, 5 replicates
  Log2 TE ACTA1: −2.018
ENSG00000143632, Control vs. TGFβ
  change in translational profile of ACTA1 caused by TGFβ: A (A = <−2.5)
ENSG00000143850, 5 replicates
  Log2 TE PLEKHA6: −2.069
ENSG00000143850, Control vs. TGFβ
  change in translational profile of PLEKHA6 caused by TGFβ: B (B = <−1.5 to −2.5)
ENSG00000143947, 5 replicates
  Log2 TE RPS27A: 1.275
ENSG00000144218, 5 replicates
  Log2 TE AFF3: 1.146
ENSG00000144713, 5 replicates
  Log2 TE RPL32: 1.916
ENSG00000144713, Control vs. TGFβ
  change in translational profile of RPL32 caused by TGFβ: E (E = <1.5 to 2.5)
ENSG00000145029, 5 replicates
  Log2 TE NICN1: 1.403
ENSG00000145425, 5 replicates
  Log2 TE RPS3A: 1.661
ENSG00000145592, 5 replicates
  Log2 TE RPL37: 1.808
ENSG00000145592, Control vs. TGFβ
  change in translational profile of RPL37 caused by TGFβ: E (E = <1.5 to 2.5)
ENSG00000145741, 5 replicates
  Log2 TE BTF3: 1.13
ENSG00000145741, Control vs. TGFβ
  change in translational profile of BTF3 caused by TGFβ: D (D = <1.0 to 1.5)
ENSG00000146066, 5 replicates
  Log2 TE HIGD2A: 1.196
ENSG00000146066, Control vs. TGFβ
  change in translational profile of HIGD2A caused by TGFβ: D (D = <1.0 to 1.5)
ENSG00000146411, 5 replicates
  Log2 TE SLC2A12: −1.9708
ENSG00000146592, Control vs. TGFβ
  change in translational profile of CREB5 caused by TGFβ: D (D = <1.0 to 1.5)
ENSG00000146757, 5 replicates
  Log2 TE ZNF92: −1.238
ENSG00000146966, 5 replicates
  Log2 TE DENND2A: −1.156
ENSG00000146966, Control vs. TGFβ
  change in translational profile of DENND2A caused by TGFβ: C (C = <−1.0 to −1.5)
ENSG00000147403, 5 replicates
  Log2 TE RPL10: 1.691
ENSG00000147403, Control vs. TGFβ
  change in translational profile of RPL10 caused by TGFβ: E (E = <1.5 to 2.5)
ENSG00000147677, 5 replicates
  Log2 TE EIF3H: 1.329
ENSG00000147677, Control vs. TGFβ
  change in translational profile of EIF3H caused by TGFβ: E (E = <1.5 to 2.5)
ENSG00000148082, 5 replicates
  Log2 TE SHC3: −1.541
ENSG00000148303, 5 replicates
  Log2 TE RPL7A: 1.65
ENSG00000148303, Control vs. TGFβ
  change in translational profile of RPL7A caused by TGFβ: E (E = <1.5 to 2.5)
ENSG00000149100, Control vs. TGFβ
  change in translational profile of EIF3M caused by TGFβ: D (D = <1.0 to 1.5)
ENSG00000149273, 5 replicates
  Log2 TE RPS3: 1.518
ENSG00000149596, Control vs. TGFβ
  change in translational profile of JPH2 caused by TGFβ: F (F = >2.5)
ENSG00000149806, Control vs. TGFβ
  change in translational profile of FAU caused by TGFβ: D (D = <1.0 to 1.5)
ENSG00000150636, 5 replicates
  Log2 TE CCDC102B: −2.977
ENSG00000150636, Control vs. TGFβ
  change in translational profile of CCDC102B caused by TGFβ: A (A = <−2.5)
ENSG00000151474, Control vs. TGFβ
  change in translational profile of FRMD4A caused by TGFβ: C (C = <−1.0 to −1.5)
ENSG00000151773, 5 replicates
  Log2 TE CCDC122: −1.004
ENSG00000152154, 5 replicates
  Log2 TE TMEM178: 2.016
ENSG00000152413, 5 replicates
  Log2 TE HOMER1: 1.003
ENSG00000152413, Control vs. TGFβ
  change in translational profile of HOMER1 caused by TGFβ: D (D = <1.0 to 1.5)
ENSG00000152527, 5 replicates
  Log2 TE PLEKHH2: −1.389
ENSG00000152527, Control vs. TGFβ
  change in translational profile of PLEKHH2 caused by TGFβ: B (B = <−1.5 to −2.5)
ENSG00000152818, 5 replicates
  Log2 TE UTRN: −1.085
ENSG00000153707, 5 replicates
  Log2 TE PTPRD: −1.186
ENSG00000154122, Control vs. TGFβ
  change in translational profile of ANKH caused by TGFβ: D (D = <1.0 to 1.5)
ENSG00000154262, 5 replicates
  Log2 TE ABCA6: −2.167
ENSG00000154262, Control vs. TGFβ
  change in translational profile of ABCA6 caused by TGFβ: A (A = <−2.5)
ENSG00000154358, Control vs. TGFβ
  change in translational profile of OBSCN caused by TGFβ: B (B = <−1.5 to −2.5)
ENSG00000154654, 5 replicates
  Log2 TE NCAM2: −1.135
ENSG00000154736, Control vs. TGFβ
  change in translational profile of ADAMTS5 caused by TGFβ: C (C = <−1.0 to −1.5)
ENSG00000155463, Control vs. TGFβ
  change in translational profile of OXA1L caused by TGFβ: D (D = <1.0 to 1.5)
ENSG00000155621, 5 replicates
  Log2 TE C9orf85: 1.112
ENSG00000155621, Control vs. TGFβ
  change in translational profile of C9orf85 caused by TGFβ: D (D = <1.0 to 1.5)
ENSG00000155816, 5 replicates
  Log2 TE FMN2: −1.246
ENSG00000155962, 5 replicates
  Log2 TE CLIC2: −2.392
ENSG00000156467, 5 replicates
  Log2 TE UQCRB: 1.048
ENSG00000156482, 5 replicates
  Log2 TE RPL30: 1.622
ENSG00000156482, Control vs. TGFβ
  change in translational profile of RPL30 caused by TGFβ: E (E = <1.5 to 2.5)
